Test results reported in patent publication US20100003217A1, “Compounds and Pharmaceutical Compositions for the Treatment of Viral Infections” (priority 2008, published 2010).
Values joined by “and” are separate entries in the source; they are usually repeats but may differ in a detail not shown here. Equal entries are not always repeated.

Experiments:
[1] = test system: human primary hepatocytes; test: Metabolic disposition of [^14C]-Compound 1 and [^14C]-2′-C-methyl guanosine in human primary hepatocytes (incubation medium, cellular extracts, nucleotide levels); assay type: in vitro ADME
Method in brief: (§1)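 Rat, monkey or human primary hepatocytes on collagen I plates (1.6 million cells/mL) were incubated at 37° C with 1 or 10 μM C-8 [^14C]-labelled compound or 2′-C-methyl guanosine for 1, 4, 8 and 24 hours. Medium and 70% methanol cell extracts were analysed by LSC and radio-HPLC. Nucleotides were identified by alkaline phosphatase treatment and retention-time matching to standards.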

[2] = test system: monkey primary hepatocytes; test: Metabolic disposition of [^14C]-Compound 1 and [^14C]-2′-C-methyl guanosine in monkey primary hepatocytes (incubation medium, cellular extracts, nucleotide levels); assay type: in vitro ADME, Cynomolgus monkey; conditions: for decrease in Compound 1 medium levels: monkey hepatocytes; for decrease in Compound 1 medium levels / % Residual [^14C]-Compound 1 in incubation medium: 10 μM
Method in brief: as §1

[3] = human hepatocytes (Hu759, Hu775), 10 μM [^14C]-Compound 1, 1 h
[4] = human hepatocytes (Hu759, Hu775), 10 μM [^14C]-Compound 1, 24 h
[5] = human hepatocytes (Hu775), 1 μM [^14C]-Compound 1, 1 h
[6] = human hepatocytes (Hu775), 1 μM [^14C]-Compound 1, 8 h
[7] = human hepatocytes (Hu775), 1 μM [^14C]-Compound 1, 24 h
[8] = monkey hepatocytes (Cy230, Cy234), 10 μM [^14C]-Compound 1, 8 h
[9] = monkey hepatocytes (Cy230, Cy234), 10 μM [^14C]-Compound 1, 24 h
[10] = monkey hepatocytes (Cy234), 10 μM [^14C]-Compound 1, 4 h

With `CC(C)(CO)C(=O)SCCOP(=O)(NCc1ccccc1)OC[C@H]1O[C@@H](n2cnc3c(=O)[nH]c(N)nc32)[C@](C)(O)[C@@H]1O` (mixture of isomers) [Compound 1, 3-hydroxy-2,2-dimethyl-thiopropionic acid S-(2-{[(2R,3R,4R,5R)-5-(2-amino-6-oxo-1,6-dihydro-purin-9-yl)-3,4-dihydroxy-4-methyl-tetrahydro-furan-2-ylmethoxy]-benzylamino-phosphoryloxy}-ethyl) ester] the “metabolites observed in cellular extracts (% of total radioactivity)” value [1, 3] was 31.1% and 23.9%, the “metabolites observed in cellular extracts (% of total radioactivity)” value ([1]; human hepatocytes (Hu759, Hu775), 10 μM [^14C]-Compound 1, 4 h) was 8.48% and 6.96% and the “metabolites observed in cellular extracts (% of total radioactivity)” value [1, 4] was 1.38% and 1.59%. The “metabolites observed in cellular extracts (% of total radioactivity)” value [1, 5] was 19.9%, the “metabolites observed in cellular extracts (% of total radioactivity)” value [1, 6] was 4.07% and the “metabolites observed in cellular extracts (% of total radioactivity)” value [1, 7] was 2.78%. The “decrease in Compound 1 medium levels” value ([1]; human hepatocytes, 10 μM, 24 hours) was 38%, the “% Residual [^14C]-Compound 1 in incubation medium” value (shortened to “% Residual”) ([1]; human primary hepatocytes (n=1), 1 μM, 0 h) was 97% and the “% Residual” value ([1]; human primary hepatocytes (n=1), 1 μM, 1 h) was 100%. For the same molecule, the “% Residual” value ([1]; human primary hepatocytes (n=1), 1 μM, 8 h) was 78%, the “% Residual” value ([1]; human primary hepatocytes (n=1), 1 μM, 24 h) was 51% and the “% Residual” value ([1]; human primary hepatocytes (n=2), 10 μM, 0 h) was 97% and 98%. The “% Residual” value ([1]; human primary hepatocytes (n=2), 10 μM, 1 h) was 94% and 97%, the “% Residual” value ([1]; human primary hepatocytes (n=2), 10 μM, 4 h) was 91% and the “% Residual” value ([1]; human primary hepatocytes (n=2), 10 μM, 8 h) was 84% and 79%. For the same molecule, the “% Residual” value ([1]; human primary hepatocytes (n=2), 10 μM, 24 h) was 63% and 60%, the “metabolites observed in cellular extracts (% of total radioactivity)” value [2, 8] was “BLD” and the “metabolites observed in cellular extracts (% of total radioactivity)” value [2, 9] was “undetected and BLD”. For the same molecule, the “metabolites observed in cellular extracts (% of total radioactivity)” value [2, 10] was 3.03%, the “decrease in Compound 1 medium levels” value ([2]; 8 hours) was “about 40%” and the “decrease in Compound 1 medium levels” value ([2]; 24 hours) was 77%. The “% Residual” value ([2]; monkey primary hepatocytes (n=2), 0 h) was 97% and 91%, the “% Residual” value ([2]; monkey primary hepatocytes (n=2), 1 h) was 95% and 67% and the “% Residual” value ([2]; monkey primary hepatocytes (n=2), 8 h) was 63% and 61%. For the same molecule, the “% Residual” value ([2]; monkey primary hepatocytes (n=2), 24 h) was 16% and 31% and the “% Residual” value ([2]; monkey primary hepatocytes, 4 h) was 66%.
For `C[C@@]1(O)[C@H](O)[C@@H](COP(=O)(O)NCc2ccccc2)O[C@H]1n1cnc2c(=O)[nH]c(N)nc21` [Compound 2, [(2R)-2-methyl-β-D-ribofuranosyl]guanine-N-benzylaminyl-5′-monophosphate], the “metabolites observed in cellular extracts (% of total radioactivity)” value [1, 3] was 6.50% and 2.30%, the “metabolites observed in cellular extracts (% of total radioactivity)” value ([1]; human hepatocytes (Hu759, Hu775), 10 μM [^14C]-Compound 1, 8 h) was “BLD” and the “metabolites observed in cellular extracts (% of total radioactivity)” value [1, 4] was “BLD”. For the same molecule, the “metabolites observed in medium (% of total radioactivity)” value ([1]; human hepatocytes (Hu775), 1 μM [^14C]-Compound 1, 0 h) was 2.22%, the “metabolites observed in cellular extracts (% of total radioactivity)” value [1, 5] was 4.94% and the “metabolites observed in medium (% of total radioactivity)” value [1, 5] was “BLD”. The “metabolites observed in cellular extracts (% of total radioactivity)” value [1, 6] was “BLD”, the “metabolites observed in medium (% of total radioactivity)” value [1, 6] was 2.27% and the “metabolites observed in cellular extracts (% of total radioactivity)” value [1, 7] was “BLD”. For the same molecule, the “metabolites observed in medium (% of total radioactivity)” value [1, 7] was 1.7% and 1.72%, the “metabolites observed in medium (% of total radioactivity)” value ([1]; human hepatocytes (lots Hu759, Hu775), 10 μM [^14C]-Compound 1, 0 h) was 2.7% and 1.1% and the “metabolites observed in medium (% of total radioactivity)” value ([1]; human hepatocytes (lots Hu759, Hu775), 10 μM [^14C]-Compound 1, 4 h) was 1.8% and 0.8%. The “metabolites observed in medium (% of total radioactivity)” value ([1]; human hepatocytes (lots Hu759, Hu775), 10 μM [^14C]-Compound 1, 8 h) was 2.6% and 0.6%, the “metabolites observed in medium (% of total radioactivity)” value ([1]; human hepatocytes (lots Hu759, Hu775), 10 μM [^14C]-Compound 1, 24 h) was 2.7% and 0.7% and the “metabolites observed in cellular extracts (% of total radioactivity)” value ([2]; monkey hepatocytes (Cy230, Cy234), 10 μM [^14C]-Compound 1, 1 h) was 3.20% and 7.96%. For the same molecule, the “metabolites observed in cellular extracts (% of total radioactivity)” value [2, 8] was “BLD^c and BLD”, the “metabolites observed in cellular extracts (% of total radioactivity)” value [2, 9] was “BLD” and the “metabolites observed in cellular extracts (% of total radioactivity)” value [2, 10] was 1.25%. For the same molecule, the “metabolites observed in medium (% of total radioactivity)” value ([2]; monkey hepatocytes (lot Cy234), 10 μM [^14C]-Compound 1, 4 h) was 1.1%, the “metabolites observed in medium (% of total radioactivity)” value ([2]; monkey hepatocytes (lots Cy230, Cy234), 10 μM [^14C]-Compound 1, 0 h) was 1.0% and 6.2% and the “metabolites observed in medium (% of total radioactivity)” value ([2]; monkey hepatocytes (lots Cy230, Cy234), 10 μM [^14C]-Compound 1, 1 h) was 1.9% and 0.6%. The “metabolites observed in medium (% of total radioactivity)” value ([2]; monkey hepatocytes (lots Cy230, Cy234), 10 μM [^14C]-Compound 1, 8 h) was 8.5% and 1.8% and the “metabolites observed in medium (% of total radioactivity)” value ([2]; monkey hepatocytes (lots Cy230, Cy234), 10 μM [^14C]-Compound 1, 24 h) was 7.0% and 8.2%.
